In patent publication US10660877B2 (BRISTOL-MYERS SQUIBB COMPANY, priority 2016, dated 2020):
Where two headings read alike, the source gives them in different places.

What was measured:
human TLR8 = human TLR8 (Homo sapiens (Human), UniProt Q9NR97); test: TLR8 inhibition reporter assay (HEK-Blue cells, SEAP reporter, R848 stimulation);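 also: compounds tested from 0.05 nM to 50 µM, 22 h at 37 °C, SEAP measured with HEK-Blue Detection, inhibition relative to agonist plus DMSO versus a known inhibitor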
Chain of human TLR8 (Q9NR97 27-1041): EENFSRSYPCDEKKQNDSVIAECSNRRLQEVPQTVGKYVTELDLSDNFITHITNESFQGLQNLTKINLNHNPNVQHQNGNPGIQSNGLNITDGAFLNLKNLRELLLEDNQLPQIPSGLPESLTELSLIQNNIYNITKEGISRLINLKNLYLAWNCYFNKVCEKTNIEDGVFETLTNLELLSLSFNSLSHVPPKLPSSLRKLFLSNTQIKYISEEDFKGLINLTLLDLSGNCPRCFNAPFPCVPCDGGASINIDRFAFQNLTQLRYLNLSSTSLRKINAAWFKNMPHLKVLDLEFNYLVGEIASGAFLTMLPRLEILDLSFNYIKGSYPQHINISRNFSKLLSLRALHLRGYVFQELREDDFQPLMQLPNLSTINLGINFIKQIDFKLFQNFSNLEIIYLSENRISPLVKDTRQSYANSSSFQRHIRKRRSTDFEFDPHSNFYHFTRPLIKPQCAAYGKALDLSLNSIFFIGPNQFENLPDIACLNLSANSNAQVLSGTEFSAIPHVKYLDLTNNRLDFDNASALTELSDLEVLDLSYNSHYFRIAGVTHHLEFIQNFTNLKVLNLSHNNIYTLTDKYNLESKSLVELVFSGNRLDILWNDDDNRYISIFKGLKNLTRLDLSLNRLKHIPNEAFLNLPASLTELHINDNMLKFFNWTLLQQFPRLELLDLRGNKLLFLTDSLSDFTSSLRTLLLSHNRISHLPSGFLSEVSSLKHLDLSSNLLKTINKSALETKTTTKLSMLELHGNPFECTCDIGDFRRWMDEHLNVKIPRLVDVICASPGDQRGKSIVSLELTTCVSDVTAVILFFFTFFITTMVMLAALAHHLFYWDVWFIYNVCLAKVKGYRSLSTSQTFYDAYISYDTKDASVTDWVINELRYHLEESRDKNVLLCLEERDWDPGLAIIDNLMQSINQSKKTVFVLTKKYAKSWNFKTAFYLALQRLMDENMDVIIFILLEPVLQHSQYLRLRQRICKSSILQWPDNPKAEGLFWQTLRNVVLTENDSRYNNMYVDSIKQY

human TLR7 = human TLR7 (Homo sapiens (Human), UniProt Q9NYK1); test: TLR7 inhibition reporter assay (HEK-Blue cells, SEAP reporter, gardiquimod stimulation); assay type: cell-based
Chain of human TLR7 (Q9NYK1 27-1049): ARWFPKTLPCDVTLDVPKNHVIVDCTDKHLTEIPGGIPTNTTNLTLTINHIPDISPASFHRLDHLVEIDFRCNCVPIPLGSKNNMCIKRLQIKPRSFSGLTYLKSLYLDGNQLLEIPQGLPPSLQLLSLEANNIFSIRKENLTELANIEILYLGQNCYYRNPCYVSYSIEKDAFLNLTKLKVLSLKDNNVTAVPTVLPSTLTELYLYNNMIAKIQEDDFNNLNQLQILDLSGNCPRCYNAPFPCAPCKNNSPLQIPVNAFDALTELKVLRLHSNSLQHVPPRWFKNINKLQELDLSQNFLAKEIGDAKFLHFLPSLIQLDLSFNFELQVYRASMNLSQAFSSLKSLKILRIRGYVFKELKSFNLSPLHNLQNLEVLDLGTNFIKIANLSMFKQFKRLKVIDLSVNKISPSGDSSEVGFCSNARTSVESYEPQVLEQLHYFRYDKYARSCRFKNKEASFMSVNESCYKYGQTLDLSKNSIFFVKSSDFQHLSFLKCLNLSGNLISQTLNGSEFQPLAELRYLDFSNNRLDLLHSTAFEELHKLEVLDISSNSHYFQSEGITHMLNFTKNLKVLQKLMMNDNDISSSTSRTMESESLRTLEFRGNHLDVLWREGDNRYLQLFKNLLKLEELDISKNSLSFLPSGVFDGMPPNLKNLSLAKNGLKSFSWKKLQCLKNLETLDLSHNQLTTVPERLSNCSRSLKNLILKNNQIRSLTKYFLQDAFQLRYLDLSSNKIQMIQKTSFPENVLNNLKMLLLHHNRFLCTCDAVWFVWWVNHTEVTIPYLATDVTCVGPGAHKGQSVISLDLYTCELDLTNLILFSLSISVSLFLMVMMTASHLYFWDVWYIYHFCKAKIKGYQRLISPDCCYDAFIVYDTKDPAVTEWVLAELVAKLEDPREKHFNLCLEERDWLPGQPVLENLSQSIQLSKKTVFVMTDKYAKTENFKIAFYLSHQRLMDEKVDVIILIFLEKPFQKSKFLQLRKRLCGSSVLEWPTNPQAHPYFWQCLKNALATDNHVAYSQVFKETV

human TLR9 = human TLR9 (Homo sapiens (Human), UniProt Q9NR96); test: TLR9 inhibition reporter assay (HEK-Blue cells, SEAP reporter, ODN2006 stimulation);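 also: compounds tested over 0.05 nM to 50 µM, 22 h incubation, inhibition taken as SEAP signal drop from agonist plus DMSO wells toward a known inhibitor control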
Chain of human TLR9 (Q9NR96 26-1032): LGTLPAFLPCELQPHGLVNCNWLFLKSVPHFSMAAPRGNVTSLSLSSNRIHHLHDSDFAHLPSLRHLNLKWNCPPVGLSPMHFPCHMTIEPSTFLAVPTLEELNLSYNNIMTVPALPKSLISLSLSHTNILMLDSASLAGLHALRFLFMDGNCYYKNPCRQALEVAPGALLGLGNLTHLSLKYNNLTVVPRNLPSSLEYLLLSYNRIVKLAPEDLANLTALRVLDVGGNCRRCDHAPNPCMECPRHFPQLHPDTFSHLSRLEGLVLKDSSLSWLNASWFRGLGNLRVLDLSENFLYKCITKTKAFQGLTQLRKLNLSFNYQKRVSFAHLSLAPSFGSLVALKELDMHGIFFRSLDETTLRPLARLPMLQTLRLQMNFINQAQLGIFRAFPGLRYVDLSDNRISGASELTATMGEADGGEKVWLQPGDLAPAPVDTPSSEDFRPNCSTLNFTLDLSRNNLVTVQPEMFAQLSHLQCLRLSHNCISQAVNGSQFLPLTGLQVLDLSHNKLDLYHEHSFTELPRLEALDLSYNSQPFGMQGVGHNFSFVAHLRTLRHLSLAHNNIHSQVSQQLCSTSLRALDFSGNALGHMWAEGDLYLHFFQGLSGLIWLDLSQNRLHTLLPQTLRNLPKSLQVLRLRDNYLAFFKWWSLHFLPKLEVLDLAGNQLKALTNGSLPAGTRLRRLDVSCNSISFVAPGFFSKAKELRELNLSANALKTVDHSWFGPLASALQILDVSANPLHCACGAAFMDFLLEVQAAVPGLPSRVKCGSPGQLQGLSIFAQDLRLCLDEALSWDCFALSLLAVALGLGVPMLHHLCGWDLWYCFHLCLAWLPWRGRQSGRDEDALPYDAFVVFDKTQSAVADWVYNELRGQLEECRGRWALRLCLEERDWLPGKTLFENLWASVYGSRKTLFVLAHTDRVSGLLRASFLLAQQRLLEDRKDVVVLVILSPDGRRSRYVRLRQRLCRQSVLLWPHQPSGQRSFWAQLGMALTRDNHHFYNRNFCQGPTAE

[1] = read-out: TLR8 IC50, HEK-Blue cells overexpressing human TLR8, R848 15.9 μM
[2] = HEK-Blue cells overexpressing human TLR7, gardiquimod 7.5 μM
[3] = read-out: TLR9 IC50, HEK-Blue cells overexpressing human TLR9, ODN2006 5 nM
[4] = read-out: TLR8 IC50, HEK-Blue cells, R848 15.9 μM
[5] = HEK-Blue cells, gardiquimod 7.5 μM
[6] = read-out: TLR9 IC50, HEK-Blue cells, ODN2006 5 nM

SMILES	IC50 (human TLR8; [1])	IC50 (human TLR7; [2])	IC50 (human TLR9; [3])	IC50 (human TLR8; [4])	IC50 (human TLR7; [5])	IC50 (human TLR9; [6])	IC50 (human TLR8; TLR8 IC50, HEK-Blue cells overexpressing human TLR8, R848 15.9 μM)	IC50 (human TLR9; TLR9 IC50, HEK-Blue cells overexpressing human TLR9, ODN2006 5 nM)
Cc1cc(-c2[nH]c3ccc(C4CCN(C(=O)CN5CCOCC5)CC4)cc3c2C(C)C)cc(C)n1 [Example 350, 1-(4-(2-(2,6-dimethylpyridin-4-yl)-3-isopropyl-1H-indol-5-yl)piperidin-1-yl)-2-morpholinoethan-1-one]	29 nM	5.3 nM	3910 nM	–	–	–	–	–
Cc1cc(-c2[nH]c3ccc(C4CCN(C5CCNC(C)C5)CC4)cc3c2C(C)C)ccn1 (stereo not drawn) [Example 708, 3-isopropyl-5-(2′-methyl-[1,4′-bipiperidin]-4-yl)-2-(2-methylpyridin-4-yl)-1H-indole]	6.3 nM	8.1 nM	492 nM	–	–	–	–	–
Cc1cc(-c2[nH]c3ccc(C4CCN(CC(=O)NCCO)CC4)cc3c2C(C)C)cc(C)n1 [Example 222, 2-(4-(2-(2,6-dimethylpyridin-4-yl)-3-isopropyl-1H-indol-5-yl)piperidin-1-yl)-N-(2-hydroxyethyl)acetamide]	15.9 nM	2.7 nM	2240 nM	–	–	–	–	–
CCc1c(-c2ccncc2)[nH]c2ccc(C3CCN(C4CCN(C(C)C)CC4)CC3)cc12 [Example 804, 3-ethyl-5-(1′-isopropyl-[1,4′-bipiperidin]-4-yl)-2-(pyridin-4-yl)-1H-indole]	11.2 nM	212 nM	82 nM	–	–	–	–	–
Cc1cc(-c2[nH]c3ccc(C4CCN(CC(=O)N5CCC(O)CC5)CC4)cc3c2C(C)C)cc(C)n1 [Example 230, 2-(4-(2-(2,6-dimethylpyridin-4-yl)-3-isopropyl-1H-indol-5-yl)piperidin-1-yl)-1-(4-hydroxypiperidin-1-yl)ethan-1-one]	17 nM	4 nM	74 nM	–	–	–	–	–
Cc1cc(-c2[nH]c3ccc(C4CCN(C(=O)CNCCC(C)O)CC4)cc3c2C(C)C)cc(C)n1 (stereo not drawn) [Example 369, 1-(4-(2-(2,6-dimethylpyridin-4-yl)-3-isopropyl-1H-indol-5-yl)piperidin-1-yl)-2-((3-hydroxybutyl)amino)ethan-1-one]	93.8 nM	10.3 nM	1060 nM	–	–	–	–	–
Cc1cc(-c2[nH]c3ccc(C4CCN(C(=O)c5cscn5)CC4)cc3c2C(C)C)cc(C)n1 [Example 201, (4-(2-(2,6-dimethylpyridin-4-yl)-3-isopropyl-1H-indol-5-yl)piperidin-1-yl)(thiazol-4-yl)methanone]	84.1 nM	5 nM	5500 nM	–	–	–	–	–
Cc1ncc(CN2CCC(c3ccc4[nH]c(-c5ccnc(N)c5)c(C(C)C)c4c3)CC2)[nH]1 [Example 818, 4-(3-isopropyl-5-(1-((2-methyl-1H-imidazol-5-yl)methyl)piperidin-4-yl)-1H-indol-2-yl)pyridin-2-amine]	–	–	–	53.3 nM	283 nM	230 nM	–	–
Cc1cc(-c2[nH]c3ccc(C4CCN(C(=O)CN(C)C)CC4)cc3c2C(C)C)cc(C)n1 [Example 98, 2-(dimethylamino)-1-(4-(2-(2,6-dimethylpyridin-4-yl)-3-isopropyl-1H-indol-5-yl)piperidin-1-yl)ethan-1-one]	8 nM	1.6 nM	579 nM	–	–	–	–	–
Cc1cc(-c2[nH]c3ccc(C4CCN(S(=O)(=O)C5CC5)CC4)cc3c2C(C)C)ccn1 [Example 555, 5-(1-(cyclopropylsulfonyl)piperidin-4-yl)-3-isopropyl-2-(2-methylpyridin-4-yl)-1H-indole]	92.1 nM	34.9 nM	> 50000 nM	–	–	–	–	–
Cc1cc(-c2[nH]c3ccc(C4CCN(C)CC4)cc3c2C(C)C)c(C)cn1 [Example 636, 2-(2,5-dimethylpyridin-4-yl)-3-isopropyl-5-(1-methylpiperidin-4-yl)-1H-indole]	1 nM	9.8 nM	1370 nM	–	–	–	–	–
Cc1cc(-c2[nH]c3ccc(C4CCN(C(=O)CN5C[C@@H](C(F)(F)F)C[C@H]5CO)CC4)cc3c2C(C)C)cc(C)n1 [Example 394, 1-(4-(2-(2,6-dimethylpyridin-4-yl)-3-isopropyl-1H-indol-5-yl)piperidin-1-yl)-2-((2S,4S)-2-(hydroxymethyl)-4-(trifluoromethyl)pyrrolidin-1-yl)ethan-1-one]	152 nM	14.6 nM	833 nM	–	–	–	–	–
Cc1cc(-c2[nH]c3ccc(C4CCN(Cc5[nH]cnc5C)CC4)cc3c2C(C)C)ccn1 [Example 744, 3-isopropyl-5-(1-((4-methyl-1H-imidazol-5-yl)methyl)piperidin-4-yl)-2-(2-methylpyridin-4-yl)-1H-indole]	13.5 nM	28.1 nM	281 nM	–	–	–	–	–
Cc1cc(-c2[nH]c3ccc(C4CCN(CC(=O)NCC#N)CC4)cc3c2C(C)C)cc(C)n1 [Example 239, N-(cyanomethyl)-2-(4-(2-(2,6-dimethylpyridin-4-yl)-3-isopropyl-1H-indol-5-yl)piperidin-1-yl)acetamide]	8.9 nM	6.7 nM	1590 nM	–	–	–	–	–
Cc1cc(-c2[nH]c3ccc(C4CCN(C(=O)C(=O)N5CCNCC5)CC4)cc3c2C(C)C)cc(C)n1 [Example 857, 1-(4-(2-(2,6-dimethylpyridin-4-yl)-3-isopropyl-1H-indol-5-yl)piperidin-1-yl)-2-(piperazin-1-yl)ethane-1,2-dione]	–	–	–	13.6 nM	1.3 nM	441 nM	–	–
COCCNCC(=O)N1CCC(c2ccc3[nH]c(-c4cc(C)nc(C)c4)c(C(C)C)c3c2)CC1 [Example 346, 1-(4-(2-(2,6-dimethylpyridin-4-yl)-3-isopropyl-1H-indol-5-yl)piperidin-1-yl)-2-((2-methoxyethyl)amino)ethan-1-one]	16.7 nM	4.3 nM	1110 nM	–	–	–	–	–
Cc1cc(-c2[nH]c3ccc(C4CCN(C(=O)CCN(C)C)CC4)cc3c2C(C)C)cc(C)n1 [Example 97, 3-(dimethylamino)-1-(4-(2-(2,6-dimethylpyridin-4-yl)-3-isopropyl-1H-indol-5-yl)piperidin-1-yl)propan-1-one]	5.9 nM	1.3 nM	399 nM	–	–	–	–	–
Cc1cc(-c2[nH]c3cc(F)c(C4CCN(C5CCN(C(C)C)CC5)CC4)cc3c2C(C)C)ccn1 [Example 825, 6-fluoro-3-isopropyl-5-(1′-isopropyl-[1,4′-bipiperidin]-4-yl)-2-(2-methylpyridin-4-yl)-1H-indole]	–	–	–	8.1 nM	6.5 nM	380 nM	–	–
CC(=O)N1CCC(c2ccc3[nH]c(-c4cc(C)nc(F)c4)c(C(C)C)c3c2)CC1 [Example 499, 1-(4-(2-(2-fluoro-6-methylpyridin-4-yl)-3-isopropyl-1H-indol-5-yl)piperidin-1-yl)ethan-1-one]	10700 nM	3690 nM	> 50000 nM	–	–	–	–	–
Cc1cc(-c2[nH]c3ccc(C4CCN(C(=O)C5(N(C)C)CC5)CC4)cc3c2C(C)C)cc(C)n1 [Example 172, (1-(dimethylamino)cyclopropyl)(4-(2-(2,6-dimethylpyridin-4-yl)-3-isopropyl-1H-indol-5-yl)piperidin-1-yl)methanone]	101 nM	7.9 nM	5100 nM	–	–	–	–	–
Cc1cc(-c2[nH]c3ccc(C4CCN(C(=O)C5(C(F)(F)F)CC5)CC4)cc3c2C(C)C)ccn1 [Example 605, (4-(3-isopropyl-2-(2-methylpyridin-4-yl)-1H-indol-5-yl)piperidin-1-yl)(1-(trifluoromethyl)cyclopropyl)methanone]	124 nM	77.7 nM	14300 nM	–	–	–	–	–
Cc1cc(-c2[nH]c3ccc(C4CCN(Cc5c[nH]nn5)CC4)cc3c2C(C)C)c(C)cn1 [Example 690, 5-(1-((1H-1,2,3-triazol-4-yl)methyl)piperidin-4-yl)-2-(2,5-dimethylpyridin-4-yl)-3-isopropyl-1H-indole]	1.9 nM	11 nM	3510 nM	–	–	–	–	–
Cc1cc(-c2[nH]c3ccc(C4CCN(C(=O)CN(C)C)CC4)cc3c2C(C)C)cc(F)n1 [Example 501, 2-(dimethylamino)-1-(4-(2-(2-fluoro-6-methylpyridin-4-yl)-3-isopropyl-1H-indol-5-yl)piperidin-1-yl)ethan-1-one]	30.3 nM	5.5 nM	992 nM	–	–	–	–	–
Cc1cc(-c2[nH]c3ccc(C4CCNCC4O)cc3c2C(C)C)cc(C)n1 (single isomer, unassigned) [Example 488B, 4-(2-(2,6-dimethylpyridin-4-yl)-3-isopropyl-1H-indol-5-yl)piperidin-3-ol]	–	2.4 nM	–	–	–	–	33.1 nM	308 nM
Cc1cc(-c2[nH]c3ccc(C4CCN(C(=O)C5(C)CCNCC5)CC4)cc3c2C(C)C)cc(C)n1 [Example 197, (4-(2-(2,6-dimethylpyridin-4-yl)-3-isopropyl-1H-indol-5-yl)piperidin-1-yl)(4-methylpiperidin-4-yl)methanone]	23.9 nM	2.8 nM	322 nM	–	–	–	–	–
Cc1cc(-c2[nH]c3ccc(C4CCN(CC(=O)N5CCNC(=O)C5)CC4)cc3c2C(C)C)cc(C)n1 [Example 272, 4-(2-(4-(2-(2,6-dimethylpyridin-4-yl)-3-isopropyl-1H-indol-5-yl)piperidin-1-yl)acetyl)piperazin-2-one]	3.1 nM	1.2 nM	46 nM	–	–	–	–	–
Cc1cc(-c2[nH]c3ccc(C4CCN(C(=O)C(=O)N(C)CCN(C)C)CC4)cc3c2C(C)C)cc(C)n1 [Example 858, N-(2-(dimethylamino)ethyl)-2-(4-(2-(2,6-dimethylpyridin-4-yl)-3-isopropyl-1H-indol-5-yl)piperidin-1-yl)-N-methyl-2-oxoacetamide]	–	–	–	5.7 nM	1.9 nM	519 nM	–	–
